# Reference: patent publication US12637499B2, “Adrenomedullin analog, method for producing the same, and pharmaceutical use thereof” (priority 2020, dated 2026)
# Where a SMILES comes first, the peptide text is derived from it. Bridges are numbered along the chain shown (N, C = ends).
# Columns and labels:
# in vitro = experiment: in vitro
# Description: After the lapse of a predetermined time, a 30-μl portion was taken out of the reaction solution, transferred into 170 μl of 0.1% aqueous solution of trifluoroacetic acid (TFA), and stored at −80° C. until analysis.
# Quantitative analysis was performed for AM contained in the thus-obtained samples of a reaction mixture with serum or plasma by using specific fluoroimmunoassay (Tosoh Corporation) with two antibodies differing in their recognition sites. […] In the figure, the abscissa represents reaction time (min), and the ordinate represents concentration of AM (UM).
# In the figure, the abscissa represents reaction time (min), and the ordinate represents concentration of AM or an AM analog (μM).
# In the figure, the abscissa represents the type of AM or an AM analog, and the ordinate represents residual rates of AM or an AM analog (%).
# [1] = 50 nmol/kg subcutaneous, Experiment VI
# Description: (§1) Eight-week-old male Wistar rats were purchased from Charles River Laboratories Japan, Inc. The rats were grown with normal feeds in the absence of specific pathogens under cycles of a 12-hour light period and a 12-hour dark period. […] To determine plasma AM concentrations, 50 nmol/kg of AM or an AM analog was subcutaneously administered. A peripheral blood sample was collected from the tail vein into a test tube (containing 21 μg of aprotinin and 0.3 mg of EDTA-2Na) at predetermined times (0, 15, 30, 60, and 120 minutes after administration). The test tube was centrifuged at 1,700×g to afford plasma.
# in vivo = settings: male, Wistar, rat, sc, 50 nmol/kg
# Description: as §1
smiles,measurement,setting,value
"CC[C@H](C)[C@H](NC(=O)[C@H](CCC(N)=O)NC(=O)[C@H](Cc1c[nH]cn1)NC(=O)[C@H](C)NC(=O)[C@H](CC(C)C)NC(=O)[C@H](CCCCN)NC(=O)[C@H](CCC(N)=O)NC(=O)[C@@H](NC(=O)[C@@H](NC(=O)[C@@H]1CSSC[C@H](NC(=O)CNC(=O)[C@H](Cc2ccccc2)NC(=O)[C@@H](N)CO)C(=O)N[C@@H](CCCNC(=N)N)C(=O)N[C@@H](Cc2ccccc2)C(=O)NCC(=O)N[C@@H]([C@@H](C)O)C(=O)N1)[C@@H](C)O)C(C)C)C(=O)N[C@@H](Cc1ccc(O)cc1)C(=O)N[C@@H](CCC(N)=O)C(=O)N[C@@H](Cc1ccccc1)C(=O)N[C@H](C(=O)N[C@@H](CC(=O)O)C(=O)N[C@@H](CCCCN)C(=O)N[C@@H](CC(=O)O)C(=O)N[C@@H](CCCCN)C(=O)N[C@@H](CC(=O)O)C(=O)N[C@@H](CC(N)=O)C(=O)N[C@H](C(=O)N[C@@H](C)C(=O)N1CCC[C@H]1C(=O)N[C@@H](CCCCN)C(=O)N[C@@H](CO)C(=O)N[C@@H](CCCCN)C(=O)N[C@H](C(=O)N[C@@H](CO)C(=O)N1CCC[C@H]1C(=O)N[C@@H](CCC(N)=O)C(=O)NCC(=O)N[C@@H](Cc1ccc(O)cc1)C(N)=O)[C@@H](C)CC)C(C)C)[C@@H](C)O [[Lys-44]hAM(13-52), SFGCRFGTCTVQKLAHQIYQFTDKDKDNVAPKSKISPQGY-CONH2] (H-SFGCRFGTCTVQKLAHQIYQFTDKDKDNVAPKSKISPQGY-NH2; disulfide 4-9)",change in amount with the lapse of reaction time in reaction mixture with serum,"in vitro; Experiment IV, up to 240 minutes",almost no decrease or only slight decrease in amount
same,remaining at 4 h,"in vitro; serum, pH 7.1",51.8%
same,detection in rat plasma after subcutaneous administration,[1],detected in rat plasma 15 minutes after administration
same,AUC,in vivo; in vivo,0.227 nM·h
same,Cmax,in vivo; plasma,0.396 nM
same,half-life,in vivo; plasma,1.47 h
